Reference: PMC5218480 (PLoS ONE, 2017)

Test system: MV-4-11 cells
Experiment: Gene expression microarray analysis (Affymetrix PrimeView) and GSEA
Format: cell-based, human
Parameters: RFU PODN (11730768_x_at) / Fold change /veh PODN (11730768_x_at) / RFU LINC00158 (11744669_a_at) / Fold change /veh LINC00158 (11744669_a_at) / RFU DUSP10 (11751237_a_at) / Fold change /veh DUSP10 (11751237_a_at) / RFU ID3 (11757404_x_at) / Fold change /veh ID3 (11757404_x_at) / RFU PLEKHG5 (11737974_s_at) / Fold change /veh PLEKHG5 (11737974_s_at) / RFU LRRC4B (11730491_at) / Fold change /veh LRRC4B (11730491_at) / RFU GIMAP4 (11747438_a_at) / Fold change /veh GIMAP4 (11747438_a_at) / RFU KRT8 (11758183_x_at) / Fold change /veh KRT8 (11758183_x_at) / RFU CNN1 (11734310_a_at) / Fold change /veh CNN1 (11734310_a_at) / RFU VPS37D (11726825_at) / Fold change /veh VPS37D (11726825_at) / RFU C10orf10 (11716522_x_at) / Fold change /veh C10orf10 (11716522_x_at) / RFU KIR2DL2 /// KIR2DL4 /// KIR2DL5A /// KIR2DL5B /// KIR2DS1 /// KIR2DS2 /// KIR2DS3 /// KIR2DS4 /// KIR3DL3 /// KIR3DL3 /// KIR3DS1 (11738374_at) / Fold change /veh KIR2DL2 /// KIR2DL4 /// KIR2DL5A /// KIR2DL5B /// KIR2DS1 /// KIR2DS2 /// KIR2DS3 /// KIR2DS4 /// KIR3DL3 /// KIR3DL3 /// KIR3DS1 (11738374_at) / RFU C1QL1 (11718748_at) / Fold change /veh C1QL1 (11718748_at) / RFU TMPRSS4 (11747572_a_at) / Fold change /veh TMPRSS4 (11747572_a_at) / RFU HAMP (11756126_x_at) / Fold change /veh HAMP (11756126_x_at) / RFU RNFT2 (11725882_a_at) / Fold change /veh RNFT2 (11725882_a_at) / RFU NR4A2 (11747474_a_at) / Fold change /veh NR4A2 (11747474_a_at) / RFU ABCC12 (11746883_a_at) / Fold change /veh ABCC12 (11746883_a_at) / RFU TMEM136 (11760407_x_at) / Fold change /veh TMEM136 (11760407_x_at) / RFU CLDN22 /// WWC2 (11732394_at) / Fold change /veh CLDN22 /// WWC2 (11732394_at) / RFU HLA-DPB1 (11760878_x_at) / Fold change /veh HLA-DPB1 (11760878_x_at) / RFU SPINT1 (11716480_a_at) / Fold change /veh SPINT1 (11716480_a_at) / RFU GAP43 (11754022_s_at) / Fold change /veh GAP43 (11754022_s_at) / RFU A4GNT (11735810_at) / Fold change /veh A4GNT (11735810_at) / RFU PRB3 (11715151_x_at) / Fold change /veh PRB3 (11715151_x_at) / RFU TUBB4B (11761932_at) / Fold change /veh TUBB4B (11761932_at) / RFU CAPN14 (11732068_a_at) / Fold change /veh CAPN14 (11732068_a_at) / RFU TMCC2 (11721928_a_at) / Fold change /veh TMCC2 (11721928_a_at) / RFU IRGQ (11745062_a_at) / Fold change /veh IRGQ (11745062_a_at) / RFU FAM174B (11720279_a_at) / Fold change /veh FAM174B (11720279_a_at) / RFU TMPRSS4 (11748680_a_at) / Fold change /veh TMPRSS4 (11748680_a_at) / RFU FAM212B (11763350_a_at) / Fold change /veh FAM212B (11763350_a_at) / RFU PLEKHG5 (11743358_a_at) / Fold change /veh PLEKHG5 (11743358_a_at) / RFU ZSCAN30 (11745921_a_at) / Fold change /veh ZSCAN30 (11745921_a_at) / RFU CMKLR1 (11741424_a_at) / Fold change /veh CMKLR1 (11741424_a_at) / RFU LOC101060620 /// MAPK8IP1 (11723275_at) / Fold change /veh LOC101060620 /// MAPK8IP1 (11723275_at) / RFU SPTSSB (11747773_x_at) / Fold change /veh SPTSSB (11747773_x_at) / RFU PRSS12 (11739890_at) / Fold change /veh PRSS12 (11739890_at) / RFU BIN1 (11741810_x_at) / Fold change /veh BIN1 (11741810_x_at) / RFU WNT11 (11732464_a_at) / Fold change /veh WNT11 (11732464_a_at) / RFU C10orf10 (11716521_a_at) / Fold change /veh C10orf10 (11716521_a_at) / RFU C5orf56 (11738089_at) / Fold change /veh C5orf56 (11738089_at) / RFU CYB561 (11721691_x_at) / Fold change /veh CYB561 (11721691_x_at) / RFU ANKRD19P (11752326_a_at) / Fold change /veh ANKRD19P (11752326_a_at) / RFU OR2T12 /// OR2T33 /// OR2T8 (11738714_s_at) / Fold change /veh OR2T12 /// OR2T33 /// OR2T8 (11738714_s_at) / RFU VCAN (11748164_a_at) / Fold change /veh VCAN (11748164_a_at) / RFU JSRP1 (11732532_at) / Fold change /veh JSRP1 (11732532_at) / RFU KRTAP10-11 (11738290_x_at) / Fold change /veh KRTAP10-11 (11738290_x_at) / RFU MYO3A (11730013_a_at) / Fold change /veh MYO3A (11730013_a_at) / RFU EBF3 (11725865_a_at) / Fold change /veh EBF3 (11725865_a_at) / RFU CAMK2N1 (11719241_x_at) / Fold change /veh CAMK2N1 (11719241_x_at) / RFU C5orf56 (11738088_a_at) / Fold change /veh C5orf56 (11738088_a_at) / RFU OLFML3 (11715873_a_at) / Fold change /veh OLFML3 (11715873_a_at) / RFU LOC100653217 /// NTM (11731650_a_at) / Fold change /veh LOC100653217 /// NTM (11731650_a_at) / RFU MAPK11 (11762145_a_at) / Fold change /veh MAPK11 (11762145_a_at) / RFU FIZ1 (11724087_x_at) / Fold change /veh FIZ1 (11724087_x_at) / RFU OASL (11726364_x_at) / Fold change /veh OASL (11726364_x_at) / RFU SOX15 (11748057_x_at) / Fold change /veh SOX15 (11748057_x_at) / RFU CD79A (11719716_a_at) / Fold change /veh CD79A (11719716_a_at) / RFU HIST1H1D (11736915_at) / Fold change /veh HIST1H1D (11736915_at) / RFU CASKIN2 (11723855_a_at) / Fold change /veh CASKIN2 (11723855_a_at) / RFU LOC730098 (11760151_x_at) / Fold change /veh LOC730098 (11760151_x_at) / RFU OR4N2 (11742367_at) / Fold change /veh OR4N2 (11742367_at) / RFU PRRT2 (11749266_a_at) / Fold change /veh PRRT2 (11749266_a_at) / RFU SNX32 (11753110_a_at) / Fold change /veh SNX32 (11753110_a_at) / RFU CDHR5 (11726645_a_at) / Fold change /veh CDHR5 (11726645_a_at) / RFU RCAN1 (11760418_a_at) / Fold change /veh RCAN1 (11760418_a_at) / RFU FAM167A (11723789_a_at) / Fold change /veh FAM167A (11723789_a_at) / RFU FAM26E (11764081_at) / Fold change /veh FAM26E (11764081_at) / RFU ISYNA1 (11749810_s_at) / Fold change /veh ISYNA1 (11749810_s_at) / RFU ACY1 (11761880_at) / Fold change /veh ACY1 (11761880_at) / RFU 11764098_at / Fold change /veh 11764098_at / RFU SAMD14 (11745864_x_at) / Fold change /veh SAMD14 (11745864_x_at) / RFU NPB (11741838_a_at) / Fold change /veh NPB (11741838_a_at) / RFU TMPRSS6 (11731388_a_at) / Fold change /veh TMPRSS6 (11731388_a_at) / RFU KRTAP10-2 (11738614_at) / Fold change /veh KRTAP10-2 (11738614_at) / RFU ARHGAP8 /// PRR5-ARHGAP8 (11727945_x_at) / Fold change /veh ARHGAP8 /// PRR5-ARHGAP8 (11727945_x_at) / RFU KRTAP5-7 /// NADSYN1 (11734609_at) / Fold change /veh KRTAP5-7 /// NADSYN1 (11734609_at) / RFU RASL12 (11751679_a_at) / Fold change /veh RASL12 (11751679_a_at) / RFU CDKN2B (11736163_a_at) / Fold change /veh CDKN2B (11736163_a_at) / RFU PRF1 (11729649_at) / Fold change /veh PRF1 (11729649_at) / RFU, ZNF638 /// ZNF638-IT1 / Fold change vs veh, ZNF638 /// ZNF638-IT1 / RFU, PANK3 / Fold change vs veh, PANK3 / RFU, SH3YL1 / Fold change vs veh, SH3YL1 / RFU, ZEB2 / Fold change vs veh, ZEB2 / RFU, NRIP1 / Fold change vs veh, NRIP1 / RFU, PTTG1IP / Fold change vs veh, PTTG1IP / RFU, CAPN2 / Fold change vs veh, CAPN2 / RFU, MED14 / Fold change vs veh, MED14 / RFU, SNORA58 / Fold change vs veh, SNORA58 / RFU, C1orf63 / Fold change vs veh, C1orf63 / RFU, LRRFIP1 / Fold change vs veh, LRRFIP1 / RFU, NDUFAF7 / Fold change vs veh, NDUFAF7 / RFU, SLC12A2 / Fold change vs veh, SLC12A2 / RFU, IBTK / Fold change vs veh, IBTK / RFU, ESF1 / Fold change vs veh, ESF1 / Fold change vs veh, TMEM50B / RFU, TAOK1 / Fold change vs veh, TAOK1 / RFU, ACBD3 / Fold change vs veh, ACBD3 / RFU, TMA16 / Fold change vs veh, TMA16 / RFU, RWDD3 / Fold change vs veh, RWDD3 / RFU, BCAT1 / Fold change vs veh, BCAT1 / RFU, EDEM3 / Fold change vs veh, EDEM3 / RFU, TMEM33 / Fold change vs veh, TMEM33 / RFU, WDR75 / Fold change vs veh, WDR75 / RFU, AHCTF1 / Fold change vs veh, AHCTF1 / RFU, TFRC / Fold change vs veh, TFRC / RFU, ZDHHC17 / Fold change vs veh, ZDHHC17 / RFU, NOM1 / Fold change vs veh, NOM1 / RFU, ARL8B / Fold change vs veh, ARL8B / RFU, ZBTB11 / Fold change vs veh, ZBTB11 / RFU, TAMM41 / Fold change vs veh, TAMM41 / RFU, KIAA1704 /// LOC100996395 / Fold change vs veh, KIAA1704 /// LOC100996395 / RFU, ING1 / Fold change vs veh, ING1 / RFU, TRMT61B / Fold change vs veh, TRMT61B / RFU, FUBP3 / Fold change vs veh, FUBP3 / RFU, TP53 / Fold change vs veh, TP53 / RFU, TNKS2 / Fold change vs veh, TNKS2 / RFU, ZFP14 / Fold change vs veh, ZFP14 / RFU, ACTR2 / Fold change vs veh, ACTR2 / RFU, PPP3R1 / Fold change vs veh, PPP3R1 / RFU, PIK3R1 / Fold change vs veh, PIK3R1 / RFU, HNRNPA1 / Fold change vs veh, HNRNPA1 / RFU, RNF170 / Fold change vs veh, RNF170 / RFU, ZNF28 / Fold change vs veh, ZNF28 / RFU, RNGTT / Fold change vs veh, RNGTT / RFU, OGT / Fold change vs veh, OGT / RFU, BRD1 / Fold change vs veh, BRD1 / RFU, MARS / Fold change vs veh, MARS / RFU, ZNF655 / Fold change vs veh, ZNF655 / RFU, FAHD1 / Fold change vs veh, FAHD1 / RFU, BDP1 / Fold change vs veh, BDP1 / RFU, LRRCC1 / Fold change vs veh, LRRCC1 / RFU, ARID1A / Fold change vs veh, ARID1A / RFU, ZNF146 / Fold change vs veh, ZNF146 / RFU, ZNF330 / Fold change vs veh, ZNF330 / RFU, GPN3 / Fold change vs veh, GPN3 / RFU, C9orf123 / Fold change vs veh, C9orf123 / RFU, N4BP2L2 / Fold change vs veh, N4BP2L2 / RFU, ARFIP1 / Fold change vs veh, ARFIP1 / RFU, FAM179B / Fold change vs veh, FAM179B / RFU, BCL10 / Fold change vs veh, BCL10 / RFU, UHRF1BP1L / Fold change vs veh, UHRF1BP1L / RFU, BET1 / Fold change vs veh, BET1 / RFU, CNOT2 / Fold change vs veh, CNOT2 / RFU, ZNF268 / Fold change vs veh, ZNF268 / Fold change vs veh, ZNF507 / RFU, DGCR2 / Fold change vs veh, DGCR2 / RFU, WDSUB1 / Fold change vs veh, WDSUB1 / Fold change vs veh, HSP90B1 /// MIR3652 / RFU, ADSS / Fold change vs veh, ADSS / RFU, GK / Fold change vs veh, GK / RFU, ZNF148 / Fold change vs veh, ZNF148 / RFU, TAF9 / Fold change vs veh, TAF9 / RFU, SLC1A5 / Fold change vs veh, SLC1A5 / RFU, SLMO2 / Fold change vs veh, SLMO2 / RFU, ABCC4 / Fold change vs veh, ABCC4 / RFU, LOC101060439 /// RAP1B / Fold change vs veh, LOC101060439 /// RAP1B / RFU, RFX7 / Fold change vs veh, RFX7 / RFU, GTPBP10 / Fold change vs veh, GTPBP10 / RFU, CNEP1R1 / Fold change vs veh, CNEP1R1 / RFU, BIVM-ERCC5 /// ERCC5 / Fold change vs veh, BIVM-ERCC5 /// ERCC5 / RFU, ILF3 / Fold change vs veh, ILF3 / RFU 11762660_at / Fold change /veh 11762660_at / RFU VCAN (11757783_s_at) / Fold change /veh VCAN (11757783_s_at) / RFU DDX43 (11728927_at) / Fold change /veh DDX43 (11728927_at) / RFU KRT8 (11758188_x_at) / Fold change /veh KRT8 (11758188_x_at) / RFU NKD1 (11759106_at) / Fold change /veh NKD1 (11759106_at) / RFU SRD5A1 (11742802_a_at) / Fold change /veh SRD5A1 (11742802_a_at) / RFU TPSAB1 /// TPSB2 (11721975_s_at) / Fold change /veh TPSAB1 /// TPSB2 (11721975_s_at) / RFU GSTM3 (11746129_a_at) / Fold change /veh GSTM3 (11746129_a_at) / RFU IL23R (11737362_x_at) / Fold change /veh IL23R (11737362_x_at) / RFU TMEM51 (11727254_a_at) / Fold change /veh TMEM51 (11727254_a_at) / RFU PIWIL2 (11732686_x_at) / Fold change /veh PIWIL2 (11732686_x_at) / RFU ORM1 (11744905_x_at) / Fold change /veh ORM1 (11744905_x_at) / RFU CCDC152 (11743942_at) / Fold change /veh CCDC152 (11743942_at) / RFU ECM1 (11717891_a_at) / Fold change /veh ECM1 (11717891_a_at) / RFU IL23R (11748794_a_at) / Fold change /veh IL23R (11748794_a_at) / RFU TNFAIP8L3 (11732012_x_at) / Fold change /veh TNFAIP8L3 (11732012_x_at) / RFU MBOAT4 (11741988_at) / Fold change /veh MBOAT4 (11741988_at) / RFU 11764193_at / Fold change /veh 11764193_at / RFU TMEM53 (11763286_at) / Fold change /veh TMEM53 (11763286_at) / RFU MAGEB2 (11727129_at) / Fold change /veh MAGEB2 (11727129_at) / RFU TMEM200A (11744735_a_at) / Fold change /veh TMEM200A (11744735_a_at) / RFU CCDC152 (11751479_a_at) / Fold change /veh CCDC152 (11751479_a_at) / RFU FAM211A (11726209_a_at) / Fold change /veh FAM211A (11726209_a_at) / RFU RGS16 (11746705_a_at) / Fold change /veh RGS16 (11746705_a_at) / RFU VCAN (11755009_s_at) / Fold change /veh VCAN (11755009_s_at) / RFU RHOB (11743442_s_at) / Fold change /veh RHOB (11743442_s_at) / RFU RGS16 (11720943_a_at) / Fold change /veh RGS16 (11720943_a_at) / RFU RGS16 (11720944_at) / Fold change /veh RGS16 (11720944_at) / RFU, VPS4B / Fold change vs veh, VPS4B / RFU, CREB1 / Fold change vs veh, CREB1 / RFU, DNAJC13 / Fold change vs veh, DNAJC13 / RFU, GNAQ / Fold change vs veh, GNAQ / RFU, CDK5R1 / Fold change vs veh, CDK5R1 / RFU, ZRANB3 / Fold change vs veh, ZRANB3 / RFU, CUL4A / Fold change vs veh, CUL4A / RFU, CCNY / Fold change vs veh, CCNY / RFU, UFL1 / Fold change vs veh, UFL1 / RFU, COG3 / Fold change vs veh, COG3 / RFU, DIAPH2 / Fold change vs veh, DIAPH2 / RFU, SKA2 / Fold change vs veh, SKA2 / RFU, AFF3 / Fold change vs veh, AFF3 / RFU, LMF1 / Fold change vs veh, LMF1 / RFU, IPO11 / Fold change vs veh, IPO11 / RFU, DFFB / Fold change vs veh, DFFB / RFU, FOXP1 / Fold change vs veh, FOXP1 / RFU, CARD8 / Fold change vs veh, CARD8 / RFU, STRN3 / Fold change vs veh, STRN3 / RFU, ADK / Fold change vs veh, ADK / RFU, RASSF2 / Fold change vs veh, RASSF2 / RFU, WIPF1 / Fold change vs veh, WIPF1 / RFU, LARP1B / Fold change vs veh, LARP1B / RFU, RASA1 / Fold change vs veh, RASA1 / RFU, RB1 / Fold change vs veh, RB1 / RFU, PPFIA1 / Fold change vs veh, PPFIA1 / RFU, MAT2A / Fold change vs veh, MAT2A / RFU, CCT5 / Fold change vs veh, CCT5 / RFU, WDR92 / Fold change vs veh, WDR92 / RFU, CUX1 / Fold change vs veh, CUX1 / RFU, TTC7A / Fold change vs veh, TTC7A / RFU, TMEM135 / Fold change vs veh, TMEM135 / RFU, DEPTOR / Fold change vs veh, DEPTOR / RFU, CPM / Fold change vs veh, CPM / RFU, DNAJB6 / Fold change vs veh, DNAJB6 / RFU, CACNA2D3 / Fold change vs veh, CACNA2D3 / RFU, DTX4 / Fold change vs veh, DTX4 / RFU, TFCP2 / Fold change vs veh, TFCP2 / RFU, GMCL1 /// GMCL1P1 / Fold change vs veh, GMCL1 /// GMCL1P1 / RFU, AEBP2 / Fold change vs veh, AEBP2 / RFU, SNHG1 /// SNORD22 /// SNORD25 /// SNORD26 /// SNORD27 /// SNORD28 /// SNORD29 /// SNORD31 / Fold change vs veh, SNHG1 /// SNORD22 /// SNORD25 /// SNORD26 /// SNORD27 /// SNORD28 /// SNORD29 /// SNORD31 / Fold change (Aza/veh), C12orf56 (ProbeSet 11735607_a_at) / Fold change (ACY-1035/veh), C12orf56 (ProbeSet 11735607_a_at) / Fold change (Aza/veh), FGFR1OP (ProbeSet 11751329_s_at) / Fold change (ACY-1035/veh), FGFR1OP (ProbeSet 11751329_s_at) / Fold change (Aza/veh), VPS36 (ProbeSet 11739960_a_at) / Fold change (ACY-1035/veh), VPS36 (ProbeSet 11739960_a_at) / RFU SYPL1 (11715823_x_at) / Fold change /veh SYPL1 (11715823_x_at) / RFU IGFBP7 (11715501_s_at) / Fold change /veh IGFBP7 (11715501_s_at) / RFU REEP3 (11722064_at) / Fold change /veh REEP3 (11722064_at) / RFU IGLL1 (11728026_x_at) / Fold change /veh IGLL1 (11728026_x_at): dose or concentration left out as unconfirmed
Conditions: ProbeSet 11753616_s_at; LIST B

SMILES: Nc1ccc(-c2cccs2)cc1NC(=O)c1ccc2c(c1)cc(C1CC1)n2CCN1CCOCC1 [ACY-1035]
- RFU, ARL8B: 236.78 RFU
